≈ marks a conversion by molar mass, not a printed value.
Key:
[1] = biological target: cGMP-specific 3',5'-cyclic phosphodiesterase (Homo sapiens, UniProt O76074); assay: Inhibition of human PDE5 partially purified from MCF-7 cells; assay type: cell-free, MCF7
[2] = biological target: cGMP-inhibited 3',5'-cyclic phosphodiesterase 3A (Homo sapiens, UniProt Q14432); assay: Inhibition of human PDE3A3 expressed in baculovirus infected Sf9 cells
[3] = Solubility in Na2HPO4/NaH2PO4 buffer at pH 7.4; assay type: physicochemical
[4] = Solubility in HCl/KCl buffer at pH 1; assay type: physicochemical
Phosphodiesterase 1 [5] = biological target: T1, Phosphodiesterase 1 (Homo sapiens, UniProt P54750+Q01064+Q14123); assay: Inhibition of human PDE1 partially purified from THP-1 cells; assay type: cell-free
[6] = biological target: High affinity 3',5'-cyclic-AMP phosphodiesterase 7A (Homo sapiens, UniProt Q13946); assay: Inhibition of human PDE7A1 expressed in baculovirus infected Sf9 cells
[7] = biological target: 3',5'-cyclic-AMP phosphodiesterase 4D (Homo sapiens, UniProt Q08499); assay: Inhibition of human PDE4D3 expressed in baculovirus infected Sf9 cells
[8] = Half-life in rats after peroral administration of 2.5 mg/kg; assay type: ADME, organism-based; parameters: dose 2.5 mg/kg, route oral; conditions: rat, in vivo, po
[9] = Clearance in rats when administered at a dose of 0.5 mg/kg i.v.; assay type: ADME, organism-based; parameters: dose 0.5 mg/kg, route intravenous; conditions: rat, in vivo, iv
[10] = Oral bioavailability in rat (dose 2.5 mg/kg); assay type: ADME, organism-based; conditions: in vivo
[11] = Volume of distribution in rats when administered at a dose of 0.5 mg/kg i.v.; assay type: ADME, organism-based; parameters: dose 0.5 mg/kg, route intravenous; conditions: rat, in vivo, iv
Phosphodiesterase 1 [12] = biological target: T1, Phosphodiesterase 1; assay: Inhibition of human PDE1 expressed in baculovirus infected Sf9 cells

Chain of 3',5'-cyclic-AMP phosphodiesterase 4D (Q08499 whole entry): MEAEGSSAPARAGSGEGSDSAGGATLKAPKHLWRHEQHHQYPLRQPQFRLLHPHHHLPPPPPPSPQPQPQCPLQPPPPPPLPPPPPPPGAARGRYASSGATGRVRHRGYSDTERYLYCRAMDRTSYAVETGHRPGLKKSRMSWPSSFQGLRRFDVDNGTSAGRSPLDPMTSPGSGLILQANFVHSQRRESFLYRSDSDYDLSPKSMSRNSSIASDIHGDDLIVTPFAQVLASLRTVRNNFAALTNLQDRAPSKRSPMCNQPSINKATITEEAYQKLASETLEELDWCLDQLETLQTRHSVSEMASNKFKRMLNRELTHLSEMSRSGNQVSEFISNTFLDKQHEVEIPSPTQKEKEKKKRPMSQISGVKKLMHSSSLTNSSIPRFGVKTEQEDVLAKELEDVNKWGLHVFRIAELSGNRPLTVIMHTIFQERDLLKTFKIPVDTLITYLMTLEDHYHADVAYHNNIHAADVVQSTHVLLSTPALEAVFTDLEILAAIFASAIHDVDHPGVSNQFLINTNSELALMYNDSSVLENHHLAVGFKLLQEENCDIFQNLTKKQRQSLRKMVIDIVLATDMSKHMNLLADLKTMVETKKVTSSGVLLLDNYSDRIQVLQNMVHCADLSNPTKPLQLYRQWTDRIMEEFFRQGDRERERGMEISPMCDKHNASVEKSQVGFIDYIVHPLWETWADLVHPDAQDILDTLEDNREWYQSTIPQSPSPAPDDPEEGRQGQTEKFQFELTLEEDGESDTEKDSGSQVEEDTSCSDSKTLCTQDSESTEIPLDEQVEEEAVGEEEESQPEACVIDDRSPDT
Chain of High affinity 3',5'-cyclic-AMP phosphodiesterase 7A (Q13946 whole entry): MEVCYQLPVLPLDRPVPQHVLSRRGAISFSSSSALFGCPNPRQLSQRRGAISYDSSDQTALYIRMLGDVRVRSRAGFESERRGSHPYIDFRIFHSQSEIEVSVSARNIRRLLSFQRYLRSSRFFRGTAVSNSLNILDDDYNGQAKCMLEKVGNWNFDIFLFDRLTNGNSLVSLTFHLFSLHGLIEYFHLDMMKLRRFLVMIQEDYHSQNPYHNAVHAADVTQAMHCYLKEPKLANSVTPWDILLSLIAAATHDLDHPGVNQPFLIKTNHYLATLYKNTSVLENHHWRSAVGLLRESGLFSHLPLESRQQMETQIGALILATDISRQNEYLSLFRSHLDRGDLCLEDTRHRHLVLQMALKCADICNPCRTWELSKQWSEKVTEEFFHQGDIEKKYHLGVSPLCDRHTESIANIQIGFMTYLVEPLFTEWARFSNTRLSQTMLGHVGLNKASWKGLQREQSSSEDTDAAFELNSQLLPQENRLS
Chain of cGMP-inhibited 3',5'-cyclic phosphodiesterase 3A (Q14432 whole entry): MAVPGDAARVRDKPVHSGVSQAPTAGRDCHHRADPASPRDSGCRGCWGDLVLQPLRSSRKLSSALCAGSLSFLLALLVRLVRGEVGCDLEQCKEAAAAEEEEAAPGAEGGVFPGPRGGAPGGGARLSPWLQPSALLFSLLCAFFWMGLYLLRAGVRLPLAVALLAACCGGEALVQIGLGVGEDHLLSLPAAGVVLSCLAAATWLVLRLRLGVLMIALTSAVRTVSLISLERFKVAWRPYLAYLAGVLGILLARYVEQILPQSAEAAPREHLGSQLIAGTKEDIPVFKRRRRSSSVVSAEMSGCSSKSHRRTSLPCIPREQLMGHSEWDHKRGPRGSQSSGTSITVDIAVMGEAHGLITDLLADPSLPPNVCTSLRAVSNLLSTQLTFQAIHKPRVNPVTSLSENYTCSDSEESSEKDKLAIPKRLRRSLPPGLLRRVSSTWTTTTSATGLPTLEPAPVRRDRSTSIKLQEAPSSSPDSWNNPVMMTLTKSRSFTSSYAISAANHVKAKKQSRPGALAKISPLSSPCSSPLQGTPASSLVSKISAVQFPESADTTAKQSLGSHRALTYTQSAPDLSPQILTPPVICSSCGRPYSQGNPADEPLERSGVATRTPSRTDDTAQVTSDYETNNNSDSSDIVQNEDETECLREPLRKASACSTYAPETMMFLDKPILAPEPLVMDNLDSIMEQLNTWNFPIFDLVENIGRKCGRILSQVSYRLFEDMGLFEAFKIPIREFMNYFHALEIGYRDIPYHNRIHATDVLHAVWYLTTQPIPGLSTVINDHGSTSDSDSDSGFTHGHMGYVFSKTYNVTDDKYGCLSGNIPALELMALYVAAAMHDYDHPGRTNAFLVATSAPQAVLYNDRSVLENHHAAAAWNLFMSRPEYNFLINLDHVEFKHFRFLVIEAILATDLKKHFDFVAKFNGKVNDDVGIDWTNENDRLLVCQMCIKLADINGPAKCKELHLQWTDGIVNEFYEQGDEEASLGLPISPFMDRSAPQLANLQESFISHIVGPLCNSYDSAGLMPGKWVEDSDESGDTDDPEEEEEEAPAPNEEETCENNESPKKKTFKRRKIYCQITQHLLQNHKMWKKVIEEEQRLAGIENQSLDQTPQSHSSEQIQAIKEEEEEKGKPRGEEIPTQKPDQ

SMILES | IC50 [1] [µM] | IC50 [2] [µM] | solubility [3] [µg/mL] | solubility [4] [µg/mL] | IC50 (Phosphodiesterase 1 [5]) [µM] | IC50 [6] [µM] | IC50 [7] [µM] | half-life [8] [h] | clearance [9] [mL/min/kg] | bioavailability [10] [%] | Vd [11] [L/kg] | IC50 (Phosphodiesterase 1 [12]) [µM]
CN(C)CC(O)COc1ccc(Cl)c2c1C1(CCCCC1)NC(=O)N2 (stereo unspecified) | > 101 | > 101 | 137 (≈ 372 µM) | > 500 | > 101 | 0.4 | 55 | – | – | – | – | –
O=C1Nc2c(Cl)ccc(Cl)c2C2(CCCCC2)N1 | – | – | – | – | – | 0.01 | – | – | – | – | – | –
Cc1ccc(Cl)c2c1C1(CCCCC1)NC(=O)N2 | – | – | – | – | – | 0.1 | – | – | – | – | – | –
CCOC(=O)c1ccc(COc2ccc(Cl)c3c2C2(CCCCC2)NC(=O)N3)o1 | 80 | 78 | – | – | 2.98 | 0.01 | 1.02 | – | – | – | – | –
NCCOCCOc1ccc(Cl)c2c1C1(CCCCC1)NC(=O)N2 | > 101 | > 101 | > 500 | > 500 | > 101 | 1.62 | 99 | – | – | – | – | –
O=C1Nc2c(Cl)ccc(OCc3nn[nH]n3)c2C2(CCCCC2)N1 | > 88 | 11.8 | 345 (≈ 989 µM) | < 1 | – | 0.004 | 0.32 | – | – | – | – | 0.32
O=C1Nc2c(Cl)cccc2C2(CCCCC2)N1 | – | – | – | – | – | 0.17 | – | – | – | – | – | –
O=C1Nc2c(Cl)ccc(OCc3noc(O)n3)c2C2(CCCCC2)N1 | > 101 | 21.9 | 113 (≈ 310 µM) | < 1 | 0.61 | 0.0035 | 0.82 | – | – | – | – | –
O=C1Nc2c(Cl)ccc(OCc3ccc(C(=O)O)o3)c2C2(CCCCC2)N1 | > 101 | 10.8 | 100 (≈ 256 µM) | < 1 | 1.6 | 0.016 | 1.13 | – | – | – | – | –
CNCC(O)COc1ccc(Cl)c2c1C1(CCCCC1)NC(=O)N2 (stereo unspecified) | > 101 | > 101 | > 500 | > 500 | > 101 | 0.21 | 12 | – | – | – | – | –
O=C(O)CNCCOc1ccc(Cl)c2c1C1(CCCCC1)NC(=O)N2 | > 101 | > 101 | 230 (≈ 625 µM) | > 500 | 29.7 | 0.04 | 14.7 | 2.7 | 39.9 | 6.5 | 0.47 | –
O=C1Nc2c(Cl)ccc(O)c2C2(CCCCC2)N1 | – | – | – | – | – | 0.01 | – | – | – | – | – | –
O=C1Nc2c(Cl)ccc(OCCN3CCOCC3)c2C2(CCCCC2)N1 | > 101 | > 101 | 4 (≈ 10.5 µM) | > 500 | 29 | 0.03 | 7.35 | 0.32 | 62.8 | 3.7 | 1.02 | –

Continued, values first:

IC50 [1] [µM] | IC50 [2] [µM] | solubility [3] [µg/mL] | solubility [4] [µg/mL] | IC50 (Phosphodiesterase 1 [5]) [µM] | IC50 [6] [µM] | IC50 [7] [µM] | half-life [8] [h] | clearance [9] [mL/min/kg] | bioavailability [10] [%] | Vd [11] [L/kg] | IC50 (Phosphodiesterase 1 [12]) [µM] | SMILES
60 | 12.7 | > 500 | > 500 | 0.65 | 0.01 | 2.41 | – | – | – | – | – | O=C1Nc2c(Cl)ccc(OCCCS(=O)(=O)O)c2C2(CCCCC2)N1
73.2 | > 101 | 190 (≈ 613 µM) | > 500 | 33 | 1.04 | 10.5 | – | – | – | – | – | NCCOc1ccc(Cl)c2c1C1(CCCCC1)NC(=O)N2
> 101 | 94 | 4 (≈ 13.1 µM) | 4 (≈ 13.1 µM) | 5.86 | 0.02 | 1.7 | – | – | – | – | – | N#CCOc1ccc(Cl)c2c1C1(CCCCC1)NC(=O)N2
> 101 | > 68 | > 500 | 1 (≈ 3.08 µM) | 4.76 | 0.04 | 15 | 1.4 | 39.4 | 21 | 1.04 | – | O=C(O)COc1ccc(Cl)c2c1C1(CCCCC1)NC(=O)N2
> 91 | > 73 | 18 (≈ 57.9 µM) | 11 (≈ 35.4 µM) | 10.5 | 0.05 | 12.2 | 1.5 | 33.6 | 27 | 1.41 | – | O=C1Nc2c(Cl)ccc(OCCO)c2C2(CCCCC2)N1
– | – | – | – | – | 0.01 | – | – | – | – | – | – | COc1ccc(Cl)c2c1C1(CCCCC1)NC(=O)N2
74 | > 101 | 195 (≈ 577 µM) | > 500 | 19 | 0.15 | 3.28 | – | – | – | – | – | CN(C)CCOc1ccc(Cl)c2c1C1(CCCCC1)NC(=O)N2
98 | > 101 | – | – | > 101 | 1.24 | 23.7 | – | – | – | – | – | CN(C)CCCOc1ccc(Cl)c2c1C1(CCCCC1)NC(=O)N2
> 101 | > 101 | > 500 | > 500 | 72.4 | 0.96 | 53.2 | – | – | – | – | – | CNCCOc1ccc(Cl)c2c1C1(CCCCC1)NC(=O)N2

— ChEMBL document CHEMBL1137828, “Spiroquinazolinones as novel, potent, and selective PDE7 inhibitors. Part 2: Optimization of 5,8-disubstituted derivatives” (Bioorg Med Chem Lett, 2004)
